Assay: PXRD studies of capped and uncapped samples after storage in stability chambers (polymorphic stability)
Type: physicochemical
Procedure: Eluxadoline Form APO-I can be characterized by a PXRD diffractogram comprising, among other peaks, characteristic peaks, expressed in degrees 2θ (±0.2°), at 6.4°, 6.9° and 11.4°. Preferably, the PXRD diffractogram further comprises at least three peaks, expressed in degrees 2θ (±0.2°), selected from the group consisting of 8.7°, 9.9°, 12.7°, 14.8°, 15.8°, 17.5°, 18.9°, 19.8° and 23.8°. More preferably, the PXRD diffractogram further comprises peaks, expressed in degrees 2θ (±0.2°), at 8.7°, 9.9°, 12.7°, 14.8°, 15.8°, 17.5°, 18.9°, 19.8° and 23.8°. PXRD studies of capped and uncapped samples of Eluxadoline Form APO-I have shown that this crystal form is stable following storage in stability chambers maintained at 27° C./60% RH and 40° C./75% RH for at least 10 days.
PXRD diffractograms were recorded on a Bruker D8 Discover powder X-ray diffractometer (Bruker-AXS, Karlsruhe, Germany). The generator was a Micro-focus X-ray source (IMSTube: Cu tube with 1.54184 A) with a voltage of 50 kV and current of 1.00 mA, using a divergence slit of 0.3 mm and collimator of 0.3 mm. For each sample, one frame was collected using a still scan with a Pilatus 3R-100 kA detector at the distance of 154.72 mm from the sample. Raw data were evaluated using the program EVA (Bruker-AXS, Karlsruhe, Germany).

COc1ccc(CN(C(=O)[C@@H](N)Cc2c(C)cc(C(N)=O)cc2C)[C@@H](C)c2nc(-c3ccccc3)c[nH]2)cc1C(=O)O [Eluxadoline Form APO-I, 5-({[(2S)-2-amino-3-(4-carbamoyl-2,6-dimethylphenyl)propionyl]-[(1S)-1-(4-phenyl-1H-imidazol-2-yl)ethyl]amino}-methyl)-2-methoxybenzoic acid]
crystal form stable following storage (PXRD) (stability chamber 27° C./60% RH): at least 10 days | crystal form stable / resists polymorph conversion following storage (PXRD) (stability chamber 40° C./75% RH): at least 10 days
